Values quoted from earlier work in US12582625B2, “Methods for treating neuroblastoma” (priority 2015, dated 2026).

Assays:
[1] = in vivo; cited from earlier work
[2] = system: tumors harboring Ki-ras mutations; conditions: AOM-treated rats, reduced from 90% (Singh et al., 1994); cited from earlier work
[3] = cited from earlier work
[4] = human, in vivo; cited from earlier work

Cc1ccc(-c2cc(C(F)(F)F)nn2-c2ccc(S(N)(=O)=O)cc2)cc1 [celecoxib, 4-[5-(4-Methylphenyl)-3-(trifluoromethyl)pyrazol-1-yl]benzenesulfonamide]
increase in rates of heart and blood vessel disease [1]: 30% | risk of gastrointestinal side effects [1]: greater than 80%

CN1C(C(=O)Nc2ccccn2)=C(O)c2ccccc2S1(=O)=O [piroxicam, 4 hydroxy-2-methyl-N-2-pyridyl-2H-1,2-benzothiazine-3-carboxamide 1,1-dioxide]
tumors harboring Ki-ras mutations [2]: 25%

CC1=C(CC(=O)O)c2cc(F)ccc2/C1=C\c1ccc([S+](C)[O-])cc1 (stereo not shown) [sulindac, (Z)-5-fluoro-2-methyl-1-((4-(methylsulfinyl)phenyl)methylene)-1H-chemical indene-3-acetic acid]
drug absorbed ([3]; after oral administration): about 90% | time to peak plasma levels ([3]; fasting patients): about 2 hours | patients with mild gastrointestinal effects [4]: ~20% | patients with skin rash and pruritus [4]: 5%
